Measurements published in patent US10357537B2, “Cyclotides as immunosuppressive agents” (priority 2011, dated 2019).
Several values for one entry are separate records, joined by “and”; a condition that tells them apart may be missing. Equal values may be shown once. Bridge positions count the residues as written; N and C are the ends. Peptide text beside a SMILES is read from it.

What was measured:
IL-2 release in PBMCs = experiment: IL-2 release of PBMC, ELISA-based FACS; assay type: cell-based, human; details: PHA-L 24 h, PMA/ionomycin 6 h; T20K 4 μM, CsA 5 μg/mL
Protocol: (§1) Following purification, PBMCs were equilibrated for 2 h at 37° C. […] This was followed by washing of each well with 100 μl PBS (centrifugation for 5 min, 1000 rpm, 20° C.) and re-suspending the cells in 100 μl medium for further assays.
Activated cells were resuspended in 50 μl of medium, transferred into a 96-well plate and treated with 10 μg/ml PHA-L. After incubation for 24 h cells were re-stimulated with PMA (50 ng/ml) und ionomycin (500 ng/ml) for 6 h. Next, the cells were transferred into Eppendorf tubes, centrifuged (5 min, 3000 RPM, 20° C.) und 50 μl of the supernatant was again transferred into new tubes and stored at −20° C. Production of cytokines was measured and quantified using the FlowCytomix™ kit according to manufacturer's instructions.
To analyze the mechanism of cyclotide-mediated anti-proliferation of T-lymphocytes, their effect on the direct release of IL-2 in PBMCs was determined. The cells were treated with a cyclotide and activated with PHA-L. After 24 h the cells were re-stimulated with PMA and ionomycin and the IL-2 concentration in the supernatant (released IL-2) was measured with an ELISA-based FACS methodology (FIG. 12A).

Jurkat cells = experiment: Ca2+ release, Fura-2; assay type: cell-based, human; details: CsA, T20K 4 μM, V10K 4 μM
Protocol: FIG. 17. Ca^2+ release in human Jurkat and T-cells. Jurkat cells (A) and T-cells (B) 1×10^6 were loaded with 1 μM Fura-2 and 0.02% Puronic F-127 for 30 minutes at 37° C. Cells were centrifuged for 5 minutes at 1200 rpm and resuspended in media [RPMI 1640 with 10% FCS, penicillin (100 U/mL) and streptomycin ([…])]. 100 μL of cell suspension were transferred to a black 96-well plate with a clear flat-bottom. Briefly before analysis the fluorometer Synergy H4 (BioTek) was tempered to 37° C. The fluorescence time course was then measured with: extinction 340/380 nm and emission 510 nm in 30 seconds intervals, continuously shaking. Ca^2+ influx was initiated by adding compounds to the cells (illustrated by the arrow). To receive maximum Ca^2+ release cells were stimulated with PMA (50 ng/mL) and Ionomycin (500 ng/mL) and T-cells additionally with PHA-L (10 μg/mL). For lowest Ca^2+ levels, cells remained untreated.
Jurkat cells T-cells were treated as described for FIG. 17, supra.

nematodes = experiment: Relative nematocidal activity (other assays, Table 2); assay type: in vivo; details: some cells print two values separated by a slash
PHA-L-stimulated PBMC = experiment: Proliferation of PHA-L-stimulated CFSE-labelled PBMC with or without exogenous IL-2; assay type: cell-based, human; details: cyclotides 4 μM, CsA 5 μg/mL, 3 day culture; for proliferation with exogenous IL-2: IL-2 10 U/mL
Protocol: FIG. 13. Proliferation capacity of cyclotide-treated PBMC in the presence of exogenous IL-2. […] The cells were cultured without exogenous IL-2 (10 U/mL) (A and B) or in the presence of IL-2 (C and D). The CFSE-labelled cells were measured after a 3 day culture period by flow cytometry and representative data are presented in dot plots (A and C). Data are presented as mean and standard deviation (SD) of three independent experiments.
as §1
Purified PBMCs (5*10^6 cells/ml) were incubated with […] of the fluorescent dye CFSE (5-carbofluoreszenein-ciacetat-succinylester) for 10 min at 37° C. The reaction was stopped using medium, cells were washed one time with medium by centrifugation (10 min, 300×g, 20° C.) and diluted with medium to 4*10^6 cells/ml.

[1] = tested on: IL2 release in human T-cells; experiment: IL2 release in human T-cells, ELISA; assay type: cell-based; details: CsA, T20K 4 μM, V10K 4 μM; PHA-L, PMA/ionomycin
Protocol: B. IL2 release in human T-cells after treatment with cyclotide. […] After another two hours PHA-L (10 μg/mL) was added to the appropriate wells and incubated over night at 37° C. On the next day T-cells were re-stimulated with Ionomycin (500 ng/mL) and PMA (50 ng/mL) for 6 hours at 37° C. Cells were then centrifuged at 3000 rpm for 5 minutes to gain their supernatants. Supernatants of stimulated T-cells were analyzed for their IL2 release using a human IL-2 ELISA Kit from eBioscience according to the manufacturer's instructions. The color reaction was evaluated at an optical density of 450 nm by the microplate reader Synergy H4 (BioTek).
Moreover, supernatants of stimulated T-cells were analyzed for their IL2 release using a human IL-2 ELISA Kit from eBioscience according to the manufacturer's instructions. The color reaction was evaluated at an optical density of 450 nm by the microplate reader Synergy H4 (BioTek) (FIG. 12B).

[2] = tested on: degranulation marker LAMP-1 (CD107a) on activated PBMC; experiment: CD107a degranulation analysis; assay type: cell-based, human; details: after 36 h; T20K 4 μM, CsA 5 μg/mL
Protocol: FIG. 16. Degranulation capacity of cyclotide-treated activated human PBMC. […] After 36 hour of cultivation the cells were restimulated with PMA/Ionomycin for 2.5 hours in the presence of a CD107a mAbs and GolgiStop reagent to determine the amount of degranulation by flow cytometry. Representative data are shown in dot plots (A) and in (B) data are presented as mean and standard deviation (SD) of three independent experiments.
Activated cells were grown for 36 h and then treated for re-stimulation with PMA (50 ng/ml) und ionomycin (500 ng/ml) and stained with CD107a PE. After 1 h the reaction was stopped with 2 μl Golgi-Stop (1:10) and incubated for 2.5 h at 37° C. The cells were transferred into a 96-well plate, centrifuged (5 min, 1000 RPM, 20° C.) and washed with 100 μl FACS-buffer. Afterwards, PBMCs were stained with CD8 PE-Cy5 for 15 min at 4° C. and following to wash cycles with FACS-buffer the cells were resuspended in 100 μl, transferred into FACS vials with a total volume of 250 μl and the degranulation was measured by FACS analysis.
After determining the influence of cyclotide treatment on the effector function of PBMCs on the basis of measuring IFN-gamma and TNF-alpha cytokine levels, it is of interest to determine an effect of cyclotides on the degranulation activity. Activation of cytotoxic CD8^+-lymphocytes lead to a release of cytolytic granules, which contain/express lysosomal-associated membrane protein 1 (CD107; LAMP-1). During degranulation, the granule vesicle membranes fuse with the membranes of activated CD8^+-lymphocytes and therefore LAMP-1 can be used as a marker protein for the cytotoxic activity of T-lymphocytes, which can be measured with FACS. After 36 h, 42%±21.4 of the CsA- and 49%±16.8 of the T20K-treated cells contain the degranulation marker LAMP-1 as compared to the control (FIG. 16). This can be interpreted in the way that CsA- and T20K-treated cells have reduced cytotoxicity.

Molecule | IL-2 release as compared to the control cells (IL-2 release in PBMCs) | Ca2+ signaling in Jurkat cells (Jurkat cells) | Relative activity in other assays (fold difference to kB1): nematocidal (nematodes) | proliferation with exogenous IL-2 (PHA-L-stimulated PBMC) | proliferation as compared to the control cells, without exogenous IL-2 (PHA-L-stimulated PBMC) | IL2 release in human T-cells [1] | cells containing the degranulation marker LAMP-1 as compared to the control [2]
kalata B1 mutant GLPVCGETCKGGTCNTPGCTCSWPVCTRN (SEQ ID No. 10) [Kalata V10K] | no effect on the release of IL-2 | did not induce a change in Ca^2+ signaling | <0.2 fold difference to kB1 | did not change the effect on proliferation | no effect on the proliferation | comparable results | no influence on the degranulation activity
CC(C)C[C@@H]1NC(=O)CNC(=O)[C@H](CC(N)=O)NC(=O)[C@H](CCCNC(=N)N)NC(=O)[C@H]([C@@H](C)O)NC(=O)[C@@H]2CSSC[C@@H]3NC(=O)[C@H]([C@@H](C)O)NC(=O)CNC(=O)CNC(=O)[C@H](C(C)C)NC(=O)[C@@H]4CSSC[C@H](NC(=O)[C@H](CCCCN)NC(=O)[C@H](CSSC[C@H](NC(=O)[C@H](C(C)C)NC(=O)[C@@H]5CCCN5C1=O)C(=O)NCC(=O)N[C@@H](CCC(=O)O)C(=O)N[C@@H]([C@@H](C)O)C(=O)N4)NC(=O)CNC(=O)[C@@H]1CCCN1C(=O)[C@H]([C@@H](C)O)NC(=O)[C@H](CC(N)=O)NC3=O)C(=O)N[C@@H](CO)C(=O)N[C@@H](Cc1c[nH]c3ccccc13)C(=O)N1CCC[C@H]1C(=O)N[C@@H](C(C)C)C(=O)N2 [Kalata T20K] (cyclo(CGETCVGGTCNTPGCKCSWPVCTRNGLPV); disulfide 1-15, 5-17, 10-22 (inferred); ring closure inferred) | 24%±18.6 | did not induce a change in Ca^2+ signaling | 3.0 fold difference to kB1 and 2.6 fold difference to kB1 | 91%±1.4 | 29%±24 | significant inhibition of cell proliferation in accordance to the IL2 level | 49%±16.8
